IC50 data for 19 molecules are collected here from US9512107B2, “Therapeutically active compositions and their methods of use” (Agios Pharmaceuticals, Inc., priority 2012, dated 2016).

The structures appear in SMILES notation. Numbering of substitutions follows the chain as printed. Where only a bound is given, the exact number is not on record here.

Assay [1] deals with T1, IDH2 R172K (Homo sapiens, UniProt P48735, R172K).
T1 sequence (P48735 40-452 R172K): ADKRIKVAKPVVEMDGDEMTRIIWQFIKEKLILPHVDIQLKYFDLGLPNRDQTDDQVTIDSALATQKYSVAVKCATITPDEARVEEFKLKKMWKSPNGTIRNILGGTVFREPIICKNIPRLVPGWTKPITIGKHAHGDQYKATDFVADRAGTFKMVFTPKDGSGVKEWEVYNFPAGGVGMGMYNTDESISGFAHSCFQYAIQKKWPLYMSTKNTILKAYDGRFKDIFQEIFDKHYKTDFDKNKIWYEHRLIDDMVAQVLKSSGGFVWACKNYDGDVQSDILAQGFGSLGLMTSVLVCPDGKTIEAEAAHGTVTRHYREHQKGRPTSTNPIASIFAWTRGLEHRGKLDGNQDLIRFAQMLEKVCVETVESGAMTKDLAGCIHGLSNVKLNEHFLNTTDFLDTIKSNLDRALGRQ
The experiment in a line: IDH2 R172K enzymatic assay (NADPH cofactor depletion, diaphorase/resazurin readout). In kind it is biochemical. The following applies: read-out: Enz R172K. The essentials: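 Test compounds are incubated with the mutant enzyme for one hour at ambient temperature. A substrate mix of 50 μM NADPH plus 6.3 mM α-KG initiates turnover, which proceeds for one hour. Diaphorase and resazurin then halt the reaction by depleting the cofactor and convert the remaining NADPH into a fluorescent signal.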
(In general: Resazurin is reduced to fluorescent resorufin, in cell work by metabolically active cells.)

Assay [2] deals with U87MG pLVX-IDH2 R140Q-neo cells. The experiment in a line: U87MG pLVX-IDH2 R140Q-neo cell based assay, 2-HG in media by LC-MS at 48 hours. The conditions noted are these: Homo sapiens, U-87 MG. Put shortly: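 U87MG cells stably expressing IDH2 R140Q were seeded overnight, then exposed to compound at 0.2% final DMSO at 37 °C, 5% CO2. 2-HG in the medium was quantified by LC-MS at 48 h. Growth inhibition was read by CellTiter-Glo luminescence at 72 h.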

The target of assay [3] is T2, IDH2 R140Q (Homo sapiens, UniProt P48735, R140Q).
T2 sequence (P48735 40-452 R140Q): T1 sequence (P48735 40-452 R172K) with R101Q, K133R
The experiment in a line: IDH2 R140Q enzymatic assay (cofactor depletion, similar format). The following applies: read-out: Enz R140Q. It counts as biochemical.

As to `CC(C)(O)CNc1nc(Nc2ccnc(F)c2)nc(-c2cccc(C(F)(F)F)n2)n1` [Compound 500, 1-[4-(2-Fluoro-pyridin-4-ylamino)-6-(6-trifluoromethyl-pyridin-2-yl)-[1,3,5]triazin-2-ylamino]-2-methyl-propan-2-ol], the IC50 is less than 100 nM in assay [1], less than 100 nM in assay [2] and 100 to 1000 nM in assay [3].
For `Cc1cc(Nc2nc(NC(C)C)nc(-c3cccc(C(F)(F)F)n3)n2)cnn1` [Compound 501, N-Isopropyl-N′-(6-methyl-pyridazin-4-yl)-6-(6-trifluoromethyl-pyridin-2-yl)-[1,3,5]triazine-2,4-diamine], the IC50 in assay [1] was 1000 to 10000 nM; in assay [2], 100 to 1000 nM; in assay [3] it was 100 to 1000 nM.
Turning to `CC(C)Nc1nc(Nc2cncc(F)c2)nc(-c2cccc(C(F)(F)F)n2)n1` [Compound 503, N-(5-Fluoro-pyridin-3-yl)-N′-isopropyl-6-(6-trifluoromethyl-pyridin-2-yl)-[1,3,5]triazine-2,4-diamine], the IC50 in assay [1] is less than 100 nM; in assay [2], less than 100 nM; in assay [3] it was 1000 to 10000 nM.
As for `FC(F)(F)c1cc(Nc2nc(NC3C4COCC43)nc(-c3cccc(C(F)(F)F)n3)n2)ccn1` (stereo not drawn) [Compound 504, N-(3-Oxa-bicyclo[3.1.0]hex-6-yl)-N′-(2-trifluoromethyl-pyridin-4-yl)-6-(6-trifluoromethyl-pyridin-2-yl)-[1,3,5]triazine-2,4-diamine], the values for the IC50 in assay [1], in assay [2] and in assay [3] were less than 100 nM, less than 100 nM and 100 to 1000 nM, respectively.
As for `N#Cc1cc(Nc2nc(NC3C4COCC43)nc(-c3cccc(C(F)(F)F)n3)n2)ccn1` (stereo not drawn) [Compound 505, 4-[4-(3-Oxa-bicyclo[3.1.0]hex-6-ylamino)-6-(6-trifluoromethyl-pyridin-2-yl)-[1,3,5]triazin-2-ylamino]-pyridine-2-carbonitrile], the IC50 in assay [1] was 100 to 1000 nM; in assay [2], less than 100 nM; in assay [3], 100 to 1000 nM.
As for `Fc1cncc(Nc2nc(NC3C4COCC43)nc(-c3cccc(Cl)n3)n2)c1` (stereo not drawn) [Compound 511, 6-(6-Chloro-pyridin-2-yl)-N-(5-fluoro-pyridin-3-yl)-N′-(3-oxa-bicyclo[3.1.0]hex-6-yl)-[1,3,5]triazine-2,4-diamine], the IC50 in assay [1] is 100 to 1000 nM; in assay [2], less than 100 nM; in assay [3], 100 to 1000 nM.
For `Fc1ccc(Nc2nc(NC3C4COCC43)nc(-c3cccc(Cl)n3)n2)cn1` (stereo not drawn) [Compound 512, 6-(6-Chloro-pyridin-2-yl)-N-(6-fluoro-pyridin-3-yl)-N′-(3-oxa-bicyclo[3.1.0]hex-6-yl)-[1,3,5]triazine-2,4-diamine], the results for the IC50 in assay [1], in assay [2] and in assay [3] were 100 to 1000 nM, less than 100 nM and 100 to 1000 nM, respectively.
On to `CC(C)Nc1nc(Nc2ccnc(C(C)(F)F)c2)nc(-c2cccc(Cl)n2)n1` [Compound 513, 6-(6-Chloro-pyridin-2-yl)-N-[2-(1,1-difluoro-ethyl)-pyridin-4-yl]-N′-isopropyl-[1,3,5]triazine-2,4-diamine], for which the IC50 in assay [1] is 100 to 1000 nM; in assay [2], less than 100 nM; in assay [3] it was 1000 to 10000 nM.
Taken in the same sequence, the figures for `CC(C)Nc1nc(Nc2ccnc(C(C)(C)O)c2)nc(-c2cccc(Cl)n2)n1` [Compound 514, 2-{4-[4-(6-Chloro-pyridin-2-yl)-6-isopropylamino-[1,3,5]triazin-2-ylamino]-pyridin-2-yl}-propan-2-ol] were less than 100 nM, less than 100 nM and 100 to 1000 nM.
In the case of `CC1CC1Nc1nc(Nc2ccnc(C(F)(F)F)c2)nc(-c2ccccn2)n1` (stereo not drawn) [Compound 516, N-(2-Methyl-cyclopropyl)-6-pyridin-2-yl-N′-(2-trifluoromethyl-pyridin-4-yl)-[1,3,5]triazine-2,4-diamine], the IC50 in assay [1] was less than 100 nM; in assay [2] it was less than 100 nM; in assay [3], 100 to 1000 nM.
On to `CC(C)(C)CNc1nc(Nc2ccnc(C(F)(F)F)c2)nc(-c2ccccn2)n1` [Compound 517, N-(2,2-Dimethyl-propyl)-6-pyridin-2-yl-N′-(2-trifluoromethyl-pyridin-4-yl)-[1,3,5]triazine-2,4-diamine], for which the IC50 is less than 100 nM in assay [1], less than 100 nM in assay [2] and 100 to 1000 nM in assay [3].
In the case of `CC(C)Nc1nc(Nc2cccc(S(=O)(=O)NCC(F)(F)F)c2)nc(-c2cccc(Cl)n2)n1` [Compound 518, 3-[4-(6-Chloro-pyridin-2-yl)-6-isopropylamino-[1,3,5]triazin-2-ylamino]-N-(2,2,2-trifluoro-ethyl)-benzenesulfonamide], the values for the IC50 in assay [1], in assay [2] and in assay [3] were less than 100 nM, less than 100 nM and 100 to 1000 nM, respectively.
Take `CC(C)Nc1nc(Nc2cccc(S(=O)(=O)NCC(F)(F)F)c2)nc(-c2cccc(C(F)(F)F)n2)n1` [Compound 519]: the IC50 was 100 to 1000 nM in assay [1], less than 100 nM in assay [2] and 100 to 1000 nM in assay [3].
Take `CC(C)(C)CNc1nc(Nc2cncnc2)nc(-c2cccc(C(F)(F)F)n2)n1` [Compound 521, N-(2,2-Dimethyl-propyl)-N′-pyrimidin-5-yl-6-(6-trifluoromethyl-pyridin-2-yl)-[1,3,5]triazine-2,4-diamine]: the IC50 was less than 100 nM in assay [1], less than 100 nM in assay [2] and 100 to 1000 nM in assay [3].
With `CC(C)Nc1nc(Nc2ccnc(C(F)(F)F)c2)nc(-c2nccc(C(F)(F)F)n2)n1` [Compound 522, N2-isopropyl-N4-(2-(trifluoromethyl)pyridin-4-yl)-6-(4-(trifluoromethyl)pyrimidin-2-yl)-1,3,5-triazine-2,4-diamine], the IC50 is 100 to 1000 nM in assay [1], less than 100 nM in assay [2] and 100 to 1000 nM in assay [3].
Take `CC(C)(C)CNc1nc(Nc2ccnc(C(F)(F)F)c2)nc(-c2nccc(C(F)(F)F)n2)n1` [Compound 523, N2-neopentyl-N4-(2-(trifluoromethyl)pyridin-4-yl)-6-(4-(trifluoromethyl)pyrimidin-2-yl)-1,3,5-triazine-2,4-diamine]: the figures for the IC50 in assay [1], in assay [2] and in assay [3] were less than 100 nM, less than 100 nM and 100 to 1000 nM, respectively.
As to `COC(C)CNc1nc(Nc2ccnc(C(F)(F)F)c2)nc(-c2cccc(C(F)(F)F)n2)n1` (stereo not drawn) [Compound 524, N-(2-Methoxy-propyl)-6-(6-trifluoromethyl-pyridin-2-yl)-N′-(2-trifluoromethyl-pyridin-4-yl)-[1,3,5]triazine-2,4-diamine], the results for the IC50 in assay [1], in assay [2] and in assay [3] were less than 100 nM, less than 100 nM and 100 to 1000 nM, respectively.
On to `CC(CO)Nc1nc(Nc2ccnc(C(F)(F)F)c2)nc(-c2cccc(C(F)(F)F)n2)n1` (stereo not drawn) [Compound 527, 2-[4-(6-Trifluoromethyl-pyridin-2-yl)-6-(2-trifluoromethyl-pyridin-4-ylamino)-[1,3,5]triazin-2-ylamino]-propan-1-ol], for which the IC50 in assay [1] is less than 100 nM; in assay [2], less than 100 nM; in assay [3], 100 to 1000 nM.
Turning to `COCCCNc1nc(Nc2ccnc(C(F)(F)F)c2)nc(-c2cccc(C(F)(F)F)n2)n1` [Compound 528, N-(3-Methoxy-propyl)-N′-(2-trifluoromethyl-pyridin-4-yl)-6-(6-trifluoromethyl-pyridin-2-yl)-[1,3,5]triazine-2,4-diamine], the IC50 was 100 to 1000 nM in assay [1], less than 100 nM in assay [2] and 100 to 1000 nM in assay [3].
